# Assay results reported in US8217084B2, “Medicinal products incorporating bound organosulfur groups” (Allium Vitalis Incorporated, priority 2004, dated 2012).
# Entries after “also recorded” stand apart in the source; their conditions may differ. Read-outs that look alike come from different tables or passages of the source.
# Tests used:
# [1] = in vivo; cited from earlier work
# papain = target: T1, papain (Carica papaya, UniProt P00784); conditions: cited from earlier work
# T1 sequence (P00784 134-345): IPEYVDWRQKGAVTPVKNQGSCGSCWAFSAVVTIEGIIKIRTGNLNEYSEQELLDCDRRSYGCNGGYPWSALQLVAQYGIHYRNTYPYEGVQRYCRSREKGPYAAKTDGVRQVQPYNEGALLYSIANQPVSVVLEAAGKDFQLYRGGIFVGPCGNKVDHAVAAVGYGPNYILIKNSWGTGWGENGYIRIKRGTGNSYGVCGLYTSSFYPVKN
# [2] = in vivo; cited from earlier work; remark: listed apart in the source
# [3] = cited from earlier work
# [4] = tested on: glutathione content of cells; conditions: daily dosage of 1000 mg; cited from earlier work
# [5] = chemiluminescence assay; cited from earlier work
# [6] = cited from earlier work; for pKa: thiol group
# LDL = conditions: cited from earlier work
# [7] = n-octanol/water (stated for DADS); cited from earlier work
# [8] = tested on: total glutathione level of cells; conditions: cited from earlier work
# [9] = cited from earlier work; remark: listed apart in the source
# E-coli O157:H7 = conditions: cited from earlier work
# [10] = after 25 g fresh garlic or 60 mg pure allicin; cited from earlier work
# [11] = Reaction with hydrogen peroxide, HPLC
# Text: Hydrogen peroxide (H2O2) was chosen for use as the model oxidant because it is readily available, sufficiently reactive to produce the desired effects, and sufficiently stable to be readily observed. The availability of an inexpensive real-time probe for H2O2 measurement (the ABD-3001, which could be leased by the month from Universal Sensors Inc.) was also a consideration.
# The specific ability of allyl mercaptan in this regard was deemed worthy of being experimentally investigated because further experiments were planned that would rely on this ability. […] Therefore, HPLC alone was used to measure the reactants and products.
# In FIG. 7, the concentrations are reported as “uM allyl” to take into account the fact that each DADS molecule contains two allyl groups, while each AllylSH molecule has only one.
# Another experiment was performed at approximate body temperature (37 degrees C.) and calculated membrane AllylSH concentration.
# nematodes = conditions: cited from earlier work
# [12] = pH dependence of reaction rate with cysteine
# CYP2E1 enzyme = CYP2E1 enzyme (Rattus norvegicus, UniProt P05182); conditions: cited from earlier work
# CYP2D6 = conditions: in 30 minutes; cited from earlier work
# CYP2E1 enzyme, sequence (P05182 whole entry): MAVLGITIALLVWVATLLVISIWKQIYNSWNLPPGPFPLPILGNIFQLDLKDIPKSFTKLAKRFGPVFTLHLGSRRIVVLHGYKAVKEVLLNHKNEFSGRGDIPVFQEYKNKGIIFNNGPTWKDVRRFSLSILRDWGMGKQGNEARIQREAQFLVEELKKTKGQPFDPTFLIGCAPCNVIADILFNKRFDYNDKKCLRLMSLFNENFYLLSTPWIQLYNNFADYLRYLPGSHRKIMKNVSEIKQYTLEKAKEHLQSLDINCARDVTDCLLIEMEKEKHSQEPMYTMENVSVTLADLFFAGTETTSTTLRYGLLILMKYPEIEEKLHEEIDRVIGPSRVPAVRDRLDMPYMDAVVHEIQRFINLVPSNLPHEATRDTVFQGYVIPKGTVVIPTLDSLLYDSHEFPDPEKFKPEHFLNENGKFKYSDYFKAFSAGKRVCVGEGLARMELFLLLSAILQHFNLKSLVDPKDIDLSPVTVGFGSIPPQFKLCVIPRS
compound,measurement,setting,value
N[C@@H](CCS)C(=O)O [homocysteine],radioprotective effect,[1],effective
"O=[N+]([O-])c1ccc([Se]S(=O)(=O)O)cc1 [selenosulfide, pNO2Ph-Se—SO3^−]",limit of inhibition of SH-dependent enzyme,papain,~50%
SnO2Ph-Se—S—SO3^− [S-aryl selenenylthiosulphate],inactivation of the enzyme,papain; by the first data point,> 90%
"C=CCSSSCC=C [DATS, Diallyl Trisulfide]",production of breath AMS and acetone,[2],produce both breath AMS and acetone
same,Reaction in Blood Half-life,[3],4 min
same,Reaction in Blood Product (moles),[3],(0.8) moles
O=C1O[C@H]([C@@H](O)CO)C(O)=C1O [vitamin C],mean percentage decrease of glutathione,[4],60%
"C=CCSCC=C [DAS, diallyl sulfide]",production of breath AMS and acetone,[2],only produces breath acetone
"N[C@@H](CCC(=O)N[C@@H](CS)C(=O)NCC(=O)O)C(=O)O [glutathione, Glutathione]",antioxidant or pro-oxidant activity,[5],most effective antioxidants
same,pKa of transformation to thiazoline form,[6],5.3
same,pKa,[6],approximately 8.5
same,radioprotective effect,[1],effective
"C=CCSC[C@H](N)C(=O)O [SAC, S-allylcysteine]",production of breath AMS and acetone,[2],produces no breath AMS or acetone
same,effect on Cu2+ induced LDL oxidation,LDL,significantly reduce
Cc1c(C)c2c(c(C)c1O)CC[C@@](C)(CCC[C@H](C)CCC[C@H](C)CCCC(C)C)O2 [alpha-tocopherol],partition coefficient,[7],550
"N[C@@H](CS)C(=O)O [cysteine, Cysteine]",pKa,[6],approximately 8.5
same,pKa,[6]; listed as CySH,8.44
same,radioprotective effect,[1],effective
"C=CCSSC[C@H](N)C(=O)O [SAMC, S-AllylMercaptoCysteine]",antioxidant or pro-oxidant activity,[5],most effective antioxidants
same,bioavailable (ingested),[2],100%
same,production of breath AMS and acetone,[2],produce both breath AMS and acetone
same,total glutathione level of cells,[8],significantly increase the total glutathione level of cells; also recorded: significant increases the total glutathione level of cells
same,Reaction in Blood Half-life,[3],3 min
same,Reaction in Blood Product (moles),[3],(0.8) moles
same,effect on Cu2+ induced LDL oxidation,LDL,significantly reduce
same,protection from acetaminophen poisoning,"[9]; post treatment, single dose 200 mg/kg",protective
same,protection from acetaminophen poisoning,[9]; pretreatment,protect mice from acetaminophen poisoning
C=CCSC[C@H](NC(C)=O)C(=O)O [N-acetyl-S-allylcysteine],effect on Cu2+ induced LDL oxidation,LDL,significantly reduce
C=CCSSC=CC[S+]([O-])CC=C (mixture of isomers) [ajoene],production of breath AMS and acetone,[2],produce both breath AMS and acetone
CS[S+](C)[O-] (stereo not shown) [methyl methane thiosulfinate],activity against E-coli O157:H7,E-coli O157:H7,effective against E-coli O157:H7
C=CCS[S+](C)[O-] (stereo not shown) [methyl allyl thiosulfinate],activity against E-coli O157:H7,E-coli O157:H7,effective against E-coli O157:H7
"C=CCS[S+]([O-])CC=C (stereo not shown) [Allicin, DiAllylThioSulfinate]",partition coefficient,[7],12.3
same,"detectability in blood, urine, or stool",[10],undetectable
same,Reaction in Blood Half-life,[3],<1 min
same,Reaction in Blood Product (moles),[3],(1.6) moles
same,time to metabolize to allyl mercaptan,[3]; red blood cells exposed to allicin,less than one minute
"C=CCS [AllylSH, AllylThiol]",formation of diallyl disulfide,"[11]; 0.85 mM AllylSH, 10 mM H2O2, 15 minute",essentially linear with time
CCCS[S+]([O-])CCC (stereo not shown) [dipropylthiosulfinate],nematicidal activity,nematodes,most effective compound found
NCCS [cysteamine],radioprotective effect,[1],effective
"C=CCSSCC=C [DADS, Diallyl Disulfide]",allicin yield,"[11]; 0.2 mM DADS, 0.022 mM AllylSH, 5.0 mM H2O2, 37 degrees C., 11 minutes",0.015 mM
same,rate of allicin formation,"[11]; 0.2 mM DADS, 5.0 mM H2O2, room temperature, no AllylSH",essentially linear with time
same,partition coefficient,[7],25.0
same,dependence of reaction rate with cysteine on pH,[12],dramatically increasing between pH 8 and 9
same,production of breath AMS and acetone,[2],produce both breath AMS and acetone
same,Reaction in Blood Half-life,[3],60 min
same,Reaction in Blood Product (moles),[3],(0.8) moles
same,inhibition of CYP2E1,CYP2E1 enzyme,potent inhibitor
same,conversion of DADS to allicin,CYP2D6,approximately 30%
S-allylcysteine sulfoxide [alliin],effect on Cu2+ induced LDL oxidation,LDL,significantly reduce
